Reference: patent US9834543B2, “Indazoles and use thereof” (Purdue Pharma L.P., priority 2013, dated 2017)
Read-outs that look alike come from different tables or passages of the source.

Key:
human Nav1.7 = human Nav1.7 (Homo sapiens (Human), UniProt Q15858); test: FLIPR or FLIPR TETRA sodium dye assay with KCl and test article pre-incubation (sodium mobilization); type: cell-based
hNav1.7 = hNav1.7 (Homo sapiens (Human), UniProt Q15858); test: EP (electrophysiology) assay, whole-cell patch clamp in hNav1.7 expressing HEK-293 cells; type: cell-based; conditions: affinity for the inactivated state of the channel; hNav1.7 HEK-293; read-out: Nav1.7 Activity (μM) EP assay Ki
hNav1.7, sequence (Q15858 other isoform, or with tags, fused parts or gaps): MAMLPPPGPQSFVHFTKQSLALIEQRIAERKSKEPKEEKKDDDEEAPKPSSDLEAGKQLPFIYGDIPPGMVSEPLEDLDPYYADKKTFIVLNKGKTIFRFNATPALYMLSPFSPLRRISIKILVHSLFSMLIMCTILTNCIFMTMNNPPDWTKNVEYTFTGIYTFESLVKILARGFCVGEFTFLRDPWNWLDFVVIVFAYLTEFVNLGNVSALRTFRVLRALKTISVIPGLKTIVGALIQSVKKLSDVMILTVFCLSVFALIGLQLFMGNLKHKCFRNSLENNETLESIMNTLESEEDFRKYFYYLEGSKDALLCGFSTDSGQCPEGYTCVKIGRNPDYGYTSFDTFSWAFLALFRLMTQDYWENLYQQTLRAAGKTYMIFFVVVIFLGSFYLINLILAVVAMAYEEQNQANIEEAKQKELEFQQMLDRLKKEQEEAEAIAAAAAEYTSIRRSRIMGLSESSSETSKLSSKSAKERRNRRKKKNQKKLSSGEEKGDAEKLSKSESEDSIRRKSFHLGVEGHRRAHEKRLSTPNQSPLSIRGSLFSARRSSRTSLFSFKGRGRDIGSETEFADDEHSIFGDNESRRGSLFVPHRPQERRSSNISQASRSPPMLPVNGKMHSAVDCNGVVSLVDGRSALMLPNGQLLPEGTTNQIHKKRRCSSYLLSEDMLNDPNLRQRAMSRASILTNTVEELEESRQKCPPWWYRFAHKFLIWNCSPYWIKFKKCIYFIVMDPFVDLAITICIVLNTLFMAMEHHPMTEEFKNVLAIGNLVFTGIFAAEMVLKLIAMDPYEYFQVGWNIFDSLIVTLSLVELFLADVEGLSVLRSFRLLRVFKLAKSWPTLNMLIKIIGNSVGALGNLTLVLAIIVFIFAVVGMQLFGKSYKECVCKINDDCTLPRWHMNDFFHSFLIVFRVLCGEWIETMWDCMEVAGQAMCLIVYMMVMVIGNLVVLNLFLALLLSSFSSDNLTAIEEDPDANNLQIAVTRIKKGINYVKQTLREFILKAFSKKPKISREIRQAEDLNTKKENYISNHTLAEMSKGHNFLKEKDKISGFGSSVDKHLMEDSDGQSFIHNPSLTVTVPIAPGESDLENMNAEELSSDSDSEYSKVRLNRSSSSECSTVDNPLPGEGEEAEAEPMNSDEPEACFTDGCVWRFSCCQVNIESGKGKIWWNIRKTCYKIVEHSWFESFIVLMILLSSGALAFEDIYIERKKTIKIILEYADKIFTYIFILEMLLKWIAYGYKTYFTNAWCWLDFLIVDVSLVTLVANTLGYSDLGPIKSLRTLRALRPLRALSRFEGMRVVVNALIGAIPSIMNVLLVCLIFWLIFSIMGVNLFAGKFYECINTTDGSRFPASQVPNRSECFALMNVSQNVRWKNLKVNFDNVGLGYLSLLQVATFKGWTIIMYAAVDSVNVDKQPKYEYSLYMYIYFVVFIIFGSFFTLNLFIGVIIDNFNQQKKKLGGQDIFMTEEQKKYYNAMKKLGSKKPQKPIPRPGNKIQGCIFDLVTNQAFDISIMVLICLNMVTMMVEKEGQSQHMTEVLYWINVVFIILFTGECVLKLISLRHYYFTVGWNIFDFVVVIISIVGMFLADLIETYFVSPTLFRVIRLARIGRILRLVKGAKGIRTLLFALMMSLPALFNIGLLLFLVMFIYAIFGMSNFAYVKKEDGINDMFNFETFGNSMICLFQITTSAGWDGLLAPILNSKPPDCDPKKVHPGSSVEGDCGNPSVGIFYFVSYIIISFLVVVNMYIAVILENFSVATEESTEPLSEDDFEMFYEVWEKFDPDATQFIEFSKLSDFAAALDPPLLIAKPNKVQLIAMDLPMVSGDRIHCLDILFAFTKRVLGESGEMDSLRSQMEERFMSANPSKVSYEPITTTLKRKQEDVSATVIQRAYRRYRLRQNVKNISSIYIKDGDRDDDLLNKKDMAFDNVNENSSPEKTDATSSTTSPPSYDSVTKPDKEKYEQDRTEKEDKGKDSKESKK
Description: Cells Manual Electrophysiology: The hNav1.7 expressing HEK-293 cells are plated on 35 mm culture dishes pre-coated with poly-D-lysine in standard DMEM culture media (Mediatech, Inc., Herndon, Va.) and incubated in a 5% CO2 incubator at 37° C. Cultured cells are used approximately 12-48 h after plating.
The hNav1.7 expressing HEK-293 cells are plated on tissue culture flasks in standard DMEM culture media (Mediatech, Inc.) and incubated in a 5% CO2 incubator at 37° C. Cultured cells are used approximately 12-48 hours after plating.
On the day of experimentation, the 35 mm dish is placed on the stage of an inverted microscope equipped with a perfusion system that continuously perfuses the culture dish with fresh recording media. A gravity driven superfusion system is used to apply test solutions directly to the cell under evaluation. This “shooter” system consists of an array of glass pipette glass connected to a motorized horizontal translator. The outlet of the shooter is positioned approximately 100 μm from the cell of interest.
Gigaseals are formed and the whole-cell configuration is established in voltage clamp mode, and membrane currents generated by hNav1.7 channels are recorded. […] Signals are sampled at 50 kHz and low pass filtered at 3 kHz.
Gigaseals are formed and the whole-cell configuration is established in voltage clamp mode, and membrane currents generated by hNav1.7 are recorded. […]
After a stable baseline is established, the test compound is applied and block of the current elicited by the test pulse assessed. […] An estimate of the Ki is calculated as follows: Ki=[drug]*{FR/(1−FR)}, Eq. 1 where [drug] is the concentration of a drug, and FR=I(after drug)/I(control), Eq. 2
where I is the peak current amplitude. If multiple concentrations were used, Ki is determined from the fit of a logistic equation to FRs plotted against corresponding drug concentrations. […]
The compound testing protocol is a series of 10 ms depolarizations from the Vh1 (determined from the SSIN) to the Vt (determined from the I-V protocol) repeated every 10-15 seconds. […]

human Nav1.7, sequence (Q15858 with tags, fused parts or gaps limits assumed): as the sequence (Q15858 other isoform, or with tags, fused parts or gaps) above

SMILES | IC50 (human Nav1.7) [µM] | Ki (hNav1.7) [µM] | IC50 (human Nav1.7; recombinant human Nav1.7 in HEK293, veratridine and scorpion venom agonists) [µM]
Cn1ncc2c(Oc3ccc(-c4cc([C@@H](O)CO)cc(C(N)=O)n4)cc3)ccc(F)c21 [Compound 40, (R)-4-(1,2-dihydroxyethyl)-6-(4-((7-fluoro-1-methyl-1H-indazol-4-yl)oxy)phenyl)picolinamide] | 0.596 ± 0.076 | – | –
Cn1ncc2c(Oc3ccc(-c4cc([C@H](O)CO)cc(C(N)=O)n4)cc3)ccc(Cl)c21 [Compound 38, (S)-6-(4-((7-chloro-1-methyl-1H-indazol-4-yl)oxy)phenyl)-4-(1,2-dihydroxyethyl)picolinamide] | 0.45 ± 0.026 | – | –
Cn1ncc2c(Oc3ccc(-c4cccc(C(N)=O)n4)cc3)ccc(Cl)c21 [Compound 22, 6-(4-((7-chloro-1-methyl-1H-indazol-4-yl)oxy)phenyl)picolinamide] | 0.53 ± 0.034 | – | –
Cn1ncc2c(Oc3ccc(S(=O)(=O)Nc4nncs4)cc3)ccc(Cl)c21 [Compound 42, 4-((7-chloro-1-methyl-1H-indazol-4-yl)oxy)-N-(1,3,4-thiadiazol-2-yl)benzenesulfonamide] | > 20 | 9.01 ± 4.76 | –
Cn1ncc2c(Oc3cc(F)c(S(=O)(=O)Nc4nncs4)cc3Cl)ccc(Cl)c21 [Compound 41, 5-chloro-4-((7-chloro-1-methyl-1H-indazol-4-yl)oxy)-2-fluoro-N-(1,3,4-thiadiazol-2-yl)benzenesulfonamide] | – | – | > 20
Cn1ncc2c(Oc3ccc(-c4cc([C@H](O)CO)cc(C(N)=O)n4)cc3)ccc(F)c21 [Compound 39, (S)-4-(1,2-dihydroxyethyl)-6-(4-((7-fluoro-1-methyl-1H-indazol-4-yl)oxy)phenyl)picolinamide] | 0.797 ± 0.051 | 0.47 ± 0.046 | –
Cn1ncc2c(Oc3ccc(-c4nc(C(N)=O)cc([C@H](O)CO)n4)cc3)ccc(Cl)c21 [Compound 34, (S)-2-(4-((7-chloro-1-methyl-1H-indazol-4-yl)oxy)phenyl)-6-(1,2-dihydroxyethyl)pyrimidine-4-carboxamide] | 0.157 ± 0.023 | 0.12 ± 0.027 | –
Cn1ncc2c(Oc3ccc(-c4nc(N[C@H]5CCNC5=O)cc(C(N)=O)n4)cc3)ccc(Cl)c21 [Compound 20, (S)-2-(4-((7-chloro-1-methyl-1H-indazol-4-yl)oxy)phenyl)-6-((2-oxopyrrolidin-3-yl)amino)pyrimidine-4-carboxamide] | 0.405 ± 0.06 | – | –
